How the values were obtained:
Test in all cases: Kinase Profiling (KINOMEscan)
Format in all cases: binding
[1] = target: 456 kinases (of these 395 non-mutant kinases) (Homo sapiens, UniProt O14920); conditions: IKK-beta; 10 μM
[2] = target: 456 kinases (of these 395 non-mutant kinases) (Homo sapiens, UniProt O15197); conditions: EPHB6; 10 μM
[3] = target: 456 kinases (of these 395 non-mutant kinases) (Homo sapiens, UniProt O43293); conditions: DAPK3; 10 μM
[4] = target: 456 kinases (of these 395 non-mutant kinases) (Homo sapiens, UniProt O60331); conditions: PIP5K1C; 10 μM
[5] = target: 456 kinases (of these 395 non-mutant kinases) (Homo sapiens, UniProt O95747); conditions: OSR1; 10 μM
[6] = target: 456 kinases (of these 395 non-mutant kinases) (Homo sapiens, UniProt O96017); conditions: CHEK2; 10 μM
[7] = target: 456 kinases (of these 395 non-mutant kinases) (Homo sapiens, UniProt P00533); conditions: EGFR; 10 μM
[8] = target: 456 kinases (of these 395 non-mutant kinases) (Homo sapiens, UniProt P00533, DEL746-750); conditions: EGFR(E746-A750del); 10 μM
[9] = target: 456 kinases (of these 395 non-mutant kinases) (Homo sapiens, UniProt P08581, Y1235D); conditions: MET(Y1235D); 10 μM
[10] = target: 456 kinases (of these 395 non-mutant kinases) (Homo sapiens, UniProt P24941); conditions: CDK2; 10 μM
[11] = target: 456 kinases (of these 395 non-mutant kinases) (Homo sapiens, UniProt P29317); conditions: EPHA2; 10 μM
[12] = target: 456 kinases (of these 395 non-mutant kinases) (Homo sapiens, UniProt P36888, K663Q); conditions: FLT3(K663Q); 10 μM
[13] = target: 456 kinases (of these 395 non-mutant kinases) (Homo sapiens, UniProt P48729); conditions: CSNK1A1; 10 μM
[14] = target: 456 kinases (of these 395 non-mutant kinases) (Homo sapiens, UniProt P49137); conditions: MAPKAPK2; 10 μM
[15] = target: 456 kinases (of these 395 non-mutant kinases) (Homo sapiens, UniProt P49759); conditions: CLK1; 10 μM
[16] = target: 456 kinases (of these 395 non-mutant kinases) (Homo sapiens, UniProt P49760); conditions: CLK2; 10 μM
[17] = target: 456 kinases (of these 395 non-mutant kinases) (Homo sapiens, UniProt P49840); conditions: GSK3A; 10 μM
[18] = target: 456 kinases (of these 395 non-mutant kinases) (Homo sapiens, UniProt P53779); conditions: JNK3; 10 μM
[19] = target: 456 kinases (of these 395 non-mutant kinases) (Homo sapiens, UniProt Q04912); conditions: MST1R; 10 μM
[20] = target: 456 kinases (of these 395 non-mutant kinases) (Homo sapiens, UniProt Q13177); conditions: PAK2; 10 μM
[21] = target: 456 kinases (of these 395 non-mutant kinases) (Homo sapiens, UniProt Q13554); conditions: CAMK2B; 10 μM
[22] = target: 456 kinases (of these 395 non-mutant kinases) (Homo sapiens, UniProt Q13627); conditions: DYRK1A; 10 μM
[23] = target: 456 kinases (of these 395 non-mutant kinases) (Homo sapiens, UniProt Q16539); conditions: p38-alpha; 10 μM
[24] = target: 456 kinases (of these 395 non-mutant kinases) (Homo sapiens, UniProt Q8IVH8); conditions: MAP4K3; 10 μM
[25] = target: 456 kinases (of these 395 non-mutant kinases) (Homo sapiens, UniProt Q8IY84); conditions: NIM1; 10 μM
[26] = target: 456 kinases (of these 395 non-mutant kinases) (Homo sapiens, UniProt Q8NE63); conditions: HIPK4; 10 μM
[27] = target: 456 kinases (of these 395 non-mutant kinases) (Homo sapiens, UniProt Q9BVS4); conditions: RIOK2; 10 μM
[28] = target: 456 kinases (of these 395 non-mutant kinases) (Homo sapiens, UniProt Q9H093); conditions: SNARK; 10 μM
[29] = target: 456 kinases (of these 395 non-mutant kinases) (Homo sapiens, UniProt Q9HC98); conditions: NEK6; 10 μM
[30] = target: 456 kinases (of these 395 non-mutant kinases) (Homo sapiens, UniProt Q9UM73, C1156Y); conditions: ALK(C1156Y); 10 μM
[31] = target: 456 kinases (of these 395 non-mutant kinases) (Homo sapiens, UniProt Q9Y5S2); conditions: MRCKB; 10 μM
[32] = target: 456 kinases (of these 395 non-mutant kinases) (Mycobacterium tuberculosis, UniProt P9WI81)
456 kinases (of these 395 non-mutant kinases) (Mycobacterium tuberculosis, UniProt P9WI81), sequence (P9WI81 2-626 limits assumed, change not shown): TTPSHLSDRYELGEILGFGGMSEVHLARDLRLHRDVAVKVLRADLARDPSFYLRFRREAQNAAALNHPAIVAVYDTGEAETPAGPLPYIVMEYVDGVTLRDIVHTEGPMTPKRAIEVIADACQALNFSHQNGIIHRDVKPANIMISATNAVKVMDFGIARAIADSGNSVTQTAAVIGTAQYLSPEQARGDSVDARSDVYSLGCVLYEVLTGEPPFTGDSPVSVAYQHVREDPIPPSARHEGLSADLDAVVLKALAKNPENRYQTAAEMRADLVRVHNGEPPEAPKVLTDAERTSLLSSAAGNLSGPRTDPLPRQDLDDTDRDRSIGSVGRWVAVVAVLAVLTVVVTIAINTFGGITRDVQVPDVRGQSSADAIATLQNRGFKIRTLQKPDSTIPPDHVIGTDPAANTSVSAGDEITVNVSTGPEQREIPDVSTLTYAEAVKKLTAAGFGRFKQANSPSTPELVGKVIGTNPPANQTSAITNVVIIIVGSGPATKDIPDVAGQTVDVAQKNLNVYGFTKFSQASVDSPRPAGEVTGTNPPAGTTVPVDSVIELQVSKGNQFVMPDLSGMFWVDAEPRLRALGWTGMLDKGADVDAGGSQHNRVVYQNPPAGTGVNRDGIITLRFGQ

456 kinases (of these 395 non-mutant kinases) (Homo sapiens, UniProt Q16539), sequence (Q16539 2-360 limits assumed, change not shown): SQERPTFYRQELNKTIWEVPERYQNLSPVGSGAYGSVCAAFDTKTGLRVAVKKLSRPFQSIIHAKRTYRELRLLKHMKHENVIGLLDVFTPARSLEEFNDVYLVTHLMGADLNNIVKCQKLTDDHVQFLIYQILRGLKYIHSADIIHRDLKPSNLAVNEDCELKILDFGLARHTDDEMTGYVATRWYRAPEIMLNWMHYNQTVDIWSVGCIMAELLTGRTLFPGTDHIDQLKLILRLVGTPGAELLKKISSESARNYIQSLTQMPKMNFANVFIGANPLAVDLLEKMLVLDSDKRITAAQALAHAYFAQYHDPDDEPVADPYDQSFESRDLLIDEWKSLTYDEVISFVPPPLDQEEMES
456 kinases (of these 395 non-mutant kinases) (Homo sapiens, UniProt P29317), sequence (P29317 24-976 limits assumed, stated change not applied): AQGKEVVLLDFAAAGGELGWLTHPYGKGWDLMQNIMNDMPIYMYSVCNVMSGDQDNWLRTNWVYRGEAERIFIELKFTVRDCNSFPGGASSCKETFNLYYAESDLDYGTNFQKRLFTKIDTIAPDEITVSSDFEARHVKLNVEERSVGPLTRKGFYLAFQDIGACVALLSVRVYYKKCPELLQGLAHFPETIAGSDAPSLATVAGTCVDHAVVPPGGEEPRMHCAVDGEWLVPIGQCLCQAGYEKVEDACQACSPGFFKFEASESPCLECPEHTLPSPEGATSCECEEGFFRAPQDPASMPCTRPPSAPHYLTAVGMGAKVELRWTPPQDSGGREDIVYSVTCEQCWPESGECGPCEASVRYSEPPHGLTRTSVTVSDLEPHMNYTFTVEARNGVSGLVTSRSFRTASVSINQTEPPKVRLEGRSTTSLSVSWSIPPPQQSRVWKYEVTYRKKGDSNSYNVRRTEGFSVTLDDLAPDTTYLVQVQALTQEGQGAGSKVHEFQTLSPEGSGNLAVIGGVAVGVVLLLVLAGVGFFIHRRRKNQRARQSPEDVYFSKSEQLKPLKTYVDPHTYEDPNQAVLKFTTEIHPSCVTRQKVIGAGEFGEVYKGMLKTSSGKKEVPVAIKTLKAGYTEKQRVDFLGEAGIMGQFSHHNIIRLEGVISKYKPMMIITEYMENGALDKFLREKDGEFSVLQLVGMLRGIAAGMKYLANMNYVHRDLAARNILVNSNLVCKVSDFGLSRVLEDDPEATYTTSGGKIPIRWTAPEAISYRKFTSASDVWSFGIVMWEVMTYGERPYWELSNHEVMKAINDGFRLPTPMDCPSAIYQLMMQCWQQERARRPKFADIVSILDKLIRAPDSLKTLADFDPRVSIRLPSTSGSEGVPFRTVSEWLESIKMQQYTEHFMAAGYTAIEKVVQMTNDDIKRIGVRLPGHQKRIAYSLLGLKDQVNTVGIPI
456 kinases (of these 395 non-mutant kinases) (Homo sapiens, UniProt O15197), sequence (O15197 32-1021 limits assumed, change not shown): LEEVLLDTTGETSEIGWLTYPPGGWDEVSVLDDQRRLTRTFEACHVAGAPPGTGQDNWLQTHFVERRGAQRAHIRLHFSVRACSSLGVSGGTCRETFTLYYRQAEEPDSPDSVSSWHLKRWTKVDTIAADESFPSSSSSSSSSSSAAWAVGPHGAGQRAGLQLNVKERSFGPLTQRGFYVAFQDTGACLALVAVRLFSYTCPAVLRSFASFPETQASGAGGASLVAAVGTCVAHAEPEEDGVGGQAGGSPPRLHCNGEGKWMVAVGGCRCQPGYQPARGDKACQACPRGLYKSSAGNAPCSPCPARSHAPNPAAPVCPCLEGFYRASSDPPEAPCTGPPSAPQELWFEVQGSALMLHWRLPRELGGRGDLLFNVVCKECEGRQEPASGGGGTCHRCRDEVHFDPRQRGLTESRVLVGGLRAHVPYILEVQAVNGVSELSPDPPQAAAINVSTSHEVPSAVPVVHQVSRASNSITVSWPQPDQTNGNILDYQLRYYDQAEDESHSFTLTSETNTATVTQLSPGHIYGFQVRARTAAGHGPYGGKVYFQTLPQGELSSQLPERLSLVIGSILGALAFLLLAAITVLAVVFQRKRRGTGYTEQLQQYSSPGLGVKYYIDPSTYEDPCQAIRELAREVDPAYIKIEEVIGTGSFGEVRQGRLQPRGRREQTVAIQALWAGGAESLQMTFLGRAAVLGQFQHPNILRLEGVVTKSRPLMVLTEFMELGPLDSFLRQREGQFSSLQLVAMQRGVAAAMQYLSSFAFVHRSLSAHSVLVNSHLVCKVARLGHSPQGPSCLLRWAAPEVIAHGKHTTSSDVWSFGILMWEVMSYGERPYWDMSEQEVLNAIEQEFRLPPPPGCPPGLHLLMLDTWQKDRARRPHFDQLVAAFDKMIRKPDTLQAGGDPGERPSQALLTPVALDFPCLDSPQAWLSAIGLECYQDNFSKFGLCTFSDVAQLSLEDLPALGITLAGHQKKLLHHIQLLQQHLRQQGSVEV
456 kinases (of these 395 non-mutant kinases) (Homo sapiens, UniProt P49840), sequence (P49840 2-483 limits assumed, change not shown): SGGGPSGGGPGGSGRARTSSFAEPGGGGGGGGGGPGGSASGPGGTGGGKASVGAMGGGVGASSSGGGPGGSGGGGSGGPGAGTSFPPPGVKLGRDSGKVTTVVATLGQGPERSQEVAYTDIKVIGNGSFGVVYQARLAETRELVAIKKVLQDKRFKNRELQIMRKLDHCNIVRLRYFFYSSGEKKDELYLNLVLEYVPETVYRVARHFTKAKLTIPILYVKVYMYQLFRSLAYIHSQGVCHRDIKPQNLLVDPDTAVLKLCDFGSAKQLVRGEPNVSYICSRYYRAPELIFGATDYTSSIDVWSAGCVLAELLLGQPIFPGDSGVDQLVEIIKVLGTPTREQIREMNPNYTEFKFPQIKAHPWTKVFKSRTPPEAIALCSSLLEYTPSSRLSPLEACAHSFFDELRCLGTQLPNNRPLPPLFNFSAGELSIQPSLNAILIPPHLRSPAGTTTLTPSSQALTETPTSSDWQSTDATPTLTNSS
456 kinases (of these 395 non-mutant kinases) (Homo sapiens, UniProt O95747), sequence (O95747 2-527 limits assumed, change not shown): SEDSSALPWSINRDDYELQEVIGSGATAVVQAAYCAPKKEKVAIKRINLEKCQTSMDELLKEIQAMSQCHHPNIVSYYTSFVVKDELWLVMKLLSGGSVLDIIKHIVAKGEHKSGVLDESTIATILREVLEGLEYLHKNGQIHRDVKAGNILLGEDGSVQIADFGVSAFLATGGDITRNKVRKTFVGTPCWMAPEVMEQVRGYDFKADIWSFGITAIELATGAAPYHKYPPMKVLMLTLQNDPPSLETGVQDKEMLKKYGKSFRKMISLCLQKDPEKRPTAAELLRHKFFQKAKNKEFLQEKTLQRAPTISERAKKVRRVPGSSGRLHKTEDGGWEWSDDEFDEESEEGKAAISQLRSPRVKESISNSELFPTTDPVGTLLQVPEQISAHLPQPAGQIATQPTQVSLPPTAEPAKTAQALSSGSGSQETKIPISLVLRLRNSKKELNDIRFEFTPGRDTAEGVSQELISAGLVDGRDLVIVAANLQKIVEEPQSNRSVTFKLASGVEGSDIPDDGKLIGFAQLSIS
456 kinases (of these 395 non-mutant kinases) (Homo sapiens, UniProt P48729), sequence (P48729 2-337 limits assumed, change not shown): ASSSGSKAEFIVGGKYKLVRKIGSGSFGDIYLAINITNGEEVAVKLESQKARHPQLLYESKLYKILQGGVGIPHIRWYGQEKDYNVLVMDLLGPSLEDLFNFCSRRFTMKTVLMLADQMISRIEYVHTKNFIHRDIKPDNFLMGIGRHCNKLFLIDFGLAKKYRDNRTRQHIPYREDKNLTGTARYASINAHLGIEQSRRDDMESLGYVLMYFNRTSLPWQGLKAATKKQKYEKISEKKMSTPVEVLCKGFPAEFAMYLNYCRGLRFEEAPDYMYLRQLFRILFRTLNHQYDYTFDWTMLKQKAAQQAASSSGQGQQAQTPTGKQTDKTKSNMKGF
456 kinases (of these 395 non-mutant kinases) (Homo sapiens, UniProt Q13177), sequence (Q13177 2-524 limits assumed, change not shown): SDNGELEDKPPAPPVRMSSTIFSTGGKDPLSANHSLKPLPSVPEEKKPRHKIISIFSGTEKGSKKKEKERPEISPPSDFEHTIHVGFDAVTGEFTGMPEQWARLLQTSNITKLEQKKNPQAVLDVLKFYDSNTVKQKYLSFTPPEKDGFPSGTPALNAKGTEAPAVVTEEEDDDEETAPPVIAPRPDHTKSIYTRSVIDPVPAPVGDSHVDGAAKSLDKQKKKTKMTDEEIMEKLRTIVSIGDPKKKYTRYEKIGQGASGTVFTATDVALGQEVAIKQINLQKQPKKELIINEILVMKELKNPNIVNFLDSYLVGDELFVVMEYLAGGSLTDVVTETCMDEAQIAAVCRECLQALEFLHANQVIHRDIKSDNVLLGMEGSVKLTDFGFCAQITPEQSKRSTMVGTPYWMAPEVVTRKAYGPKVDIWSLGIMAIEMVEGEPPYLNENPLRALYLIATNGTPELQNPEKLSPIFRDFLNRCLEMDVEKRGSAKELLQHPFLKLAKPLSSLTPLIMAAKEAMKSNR

## CCc1ccccc1NC(=O)c1c(C)nsc1Nc1cnc2cc(F)ccc2n1 [Example 20, N-(2-Ethylphenyl)-5-[(6-fluoroquinoxalin-2-yl)amino]-3-methyl-1,2-thiazole-4-carboxamide]
[1]
  % Ctrl @ 10 μM: 90 % Ctrl
[2]
  % Ctrl @ 10 μM: 92 % Ctrl
[3]
  % Ctrl @ 10 μM: 72 % Ctrl
[4]
  % Ctrl @ 10 μM: 100 % Ctrl
[5]
  % Ctrl @ 10 μM: 97 % Ctrl
[6]
  % Ctrl @ 10 μM: 100 % Ctrl
[7]
  % Ctrl @ 10 μM: 98 % Ctrl
[8]
  % Ctrl @ 10 μM: 100 % Ctrl
[9]
  % Ctrl @ 10 μM: 77 % Ctrl
[10]
  % Ctrl @ 10 μM: 100 % Ctrl
[11]
  % Ctrl @ 10 μM: 88 % Ctrl
[12]
  % Ctrl @ 10 μM: 75 % Ctrl
[13]
  % Ctrl @ 10 μM: 92 % Ctrl
[14]
  % Ctrl @ 10 μM: 89 % Ctrl
[15]
  % Ctrl @ 10 μM: 58 % Ctrl
[16]
  % Ctrl @ 10 μM: 77 % Ctrl
[17]
  % Ctrl @ 10 μM: 68 % Ctrl
[18]
  % Ctrl @ 10 μM: 100 % Ctrl
[19]
  % Ctrl @ 10 μM: 100 % Ctrl
[20]
  % Ctrl @ 10 μM: 100 % Ctrl
[21]
  % Ctrl @ 10 μM: 82 % Ctrl
[22]
  % Ctrl @ 10 μM: 100 % Ctrl
[23]
  % Ctrl @ 10 μM: 90 % Ctrl
[24]
  % Ctrl @ 10 μM: 83 % Ctrl
[25]
  % Ctrl @ 10 μM: 77 % Ctrl
[26]
  % Ctrl @ 10 μM: 97 % Ctrl
[27]
  % Ctrl @ 10 μM: 77 % Ctrl
[28]
  % Ctrl @ 10 μM: 100 % Ctrl
[29]
  % Ctrl @ 10 μM: 100 % Ctrl
[30]
  % Ctrl @ 10 μM: 100 % Ctrl
[31]
  % Ctrl @ 10 μM: 61 % Ctrl
[32]
  % Ctrl @ 10 μM: 100 % Ctrl

Source: patent publication US9682995B2, “Amino-substituted isothiazoles” (BAYER PHARMA AKTIENGESELLSCHAFT, priority 2013, dated 2017)
